According to PMC12246082, “Structural basis for catalysis by human lipoyl synthase” (Nature Communications, 2025):
Ends that are not written are not given here. * marks the point of attachment. Octanoyl = CCCCCCCC(=O)*

T1: human LIAS (lipoyl synthase) (Homo sapiens, UniProt O43766)
T1 construct: residues 65-372, N-terminal His6-tag with 10-aa linker kept (pET-28a), E. coli BL21(DE3) with pDB1282; two [Fe4S4] clusters; monomeric in asymmetric unit of 8TRW
T1 sequence (O43766 65-372): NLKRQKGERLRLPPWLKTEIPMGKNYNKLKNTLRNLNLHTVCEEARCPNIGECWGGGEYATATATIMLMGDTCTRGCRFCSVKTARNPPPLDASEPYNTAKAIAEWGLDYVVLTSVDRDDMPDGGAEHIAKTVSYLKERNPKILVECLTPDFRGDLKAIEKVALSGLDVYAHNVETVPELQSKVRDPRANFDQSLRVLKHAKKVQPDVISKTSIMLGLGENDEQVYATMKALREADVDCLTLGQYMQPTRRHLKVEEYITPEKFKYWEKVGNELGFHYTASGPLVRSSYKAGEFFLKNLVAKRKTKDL

T2: truncated human lipoyl synthase (LIAS isoform 1, aa 65–372) (human)
T2 construct: lipoyl synthase (LIAS), human, isoform 1, residues 65-372; Holds two [Fe4S4] clusters (RS and auxiliary); in the complex with Hpro the auxiliary cluster is [Fe3S3:1 mercaptooctanoyllysyl]; also called human LIAS; trnLIAS; source: E. coli BL21 (DE3) co-transformed with pDB1282, purified anaerobically (Ni-NTA, size-exclusion S-200); not shown: His6 (separated from the protein by a ten aa linker), …
T2 chain: T1 sequence (O43766 65-372)

B1: octanoyl-containing eight amino acid peptide substrate mimic, Glu-Ser-Val-(N6-octanoyl)Lys-Ala-Ala-Ser-Asp (peptide)
peptide: ESVK(Octanoyl)AASD
notes: printed in three-letter code; human Hpro 104-111 is ESVKAASE; also called OCT-8mer; OCT-8-mer; source: synthetic peptide, custom-synthesized by Proimmune (Oxford, UK)

How the values were obtained:
[1] = target: T1, human LIAS (lipoyl synthase); assay: X-ray crystal structure, […] Å; format: binding; conditions: co-crystallised with 5'-dAH and OCT-8mer, anaerobic; bidentate to unique Fe of radical SAM [Fe4S4] cluster
[2] = target: T2, truncated human lipoyl synthase (LIAS …); assay: crystal structure; LIAS (8 mg/ml) co-crystallised with 2.5 mM L-Met, 1 mM 5’-dAH and a 1.3x molar ratio of OCT-8mer; anaerobic, hanging drop, 0.1 M HEPES pH 7.5, 0.2 M Na2SO4, 30% PEG 3350, 3% trehalose; conditions: both partners purified

Molecule	X-ray crystal structure, 1.58 Å [1]	binding result [2]
CSCC[C@H](N)C(=O)O [Met, methionine]	The oxygen and nitrogen atoms of Met are coordinated to the unique iron	
B1		binds
